Source: US10800791B2, “Triazole ACC inhibitors and uses thereof” (Gilead Apollo, LLC, priority 2015, dated 2020)
pIC50: −log10 of the molar value. In brackets after ≈: the same amount, converted by molar mass. Like-named read-outs stand apart in the source and are kept apart here.

How the values were obtained:
[1] = system: Septoria tritici (St); assay: Growth inhibition assay of fungal pathogens, St; format: cell-based; conditions: Zymoseptoria tritici, 48 h
Procedure, shortened: (§1)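 Inhibition percentages reflect 48 h OD600 and visual scores relative to a 2% DMSO control. Test concentrations were 50, 10, 2 ppm or 2, 0.4, 0.08 ppm final, applied to spores in 17% V8 medium.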

[2] = system: Diplodia maydis (Dm); assay: Growth inhibition assay of fungal pathogens, Dm; format: cell-based; conditions: Stenocarpella maydis, 48 h
Procedure, shortened: as §1

[3] = system: Rhizoctonia solani (Rs); assay: Growth inhibition assay of fungal pathogens, Rs; format: cell-based; conditions: 48 h
[4] = molecular target: fungal (fACC2) (UniProt Q00955); conditions: read-out: fACC2 (in vitro ACC2 Inhibition Assay, IC50), ADP-Glo, 5 nM ACC2, 20 μM ATP, 20 μM acetyl-CoA
[5] = system: Collectotrichum graminicola (Cg); assay: Growth inhibition assay of fungal pathogens, Cg; format: cell-based; conditions: 48 h
Procedure, shortened: as §1

[6] = system: Fusarium virguliforme (Fv); assay: Growth inhibition assay of fungal pathogens, Fv; format: cell-based; conditions: 48 h
Procedure, shortened: as §1

[7] = system: C. parapsilosis; assay: Antifungal Activity Assay (broth microtiter MIC), C. parapsilosis; format: cell-based, Candida parapsilosis; conditions: Lodderomyces parapsilosis, ATCC22019, 48 h
Procedure, shortened: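 CLSI M27-A3 broth microdilution in RPMI 1640+MOPS, final inoculum 2.5×10^3 CFU/mL from overnight Sabouraud cultures grown at 35 °C. MIC read visually at 48 h against growth control.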

[8] = molecular target: human (hACC2) (Homo sapiens, UniProt O00763); assay: In vitro ACC inhibition assay (ADP-Glo), hACC2; format: biochemical; conditions: 5 nM ACC2, 20 μM ATP, 20 μM acetyl-CoA
Description: The detailed procedure is as follows. […] 10 μL ADP glo reagent was added. […] 20 μL kinase detection reagent was added.

[9] = system: Phytophthora capsici (Pc); assay: Growth inhibition assay of fungal pathogens, Pc; format: cell-based; conditions: 48 h
Procedure, shortened: as §1

[10] = system: Fusarium moniliforme (Fm); assay: Growth inhibition assay of fungal pathogens, Fm; format: cell-based; conditions: for IC90: Fusarium verticillioides, 48 h, read-out: Concentration at 90% Inhibition Fm
Procedure, shortened: as §1

[11] = read-out: Concentration at 90% Inhibition St, Septoria tritici, growth inhibition at 48 hours vs 2% DMSO control
[12] = read-out: Concentration at 90% Inhibition St, Septoria tritici, growth inhibition vs 2% DMSO control at 48 hours
[13] = read-out: Concentration at 90% Inhibition Dm, Diplodia maydis, growth inhibition at 48 hours vs 2% DMSO control
[14] = read-out: Concentration at 90% Inhibition Dm, Diplodia maydis, growth inhibition vs 2% DMSO control at 48 hours
[15] = read-out: Concentration at 90% Inhibition Rs, Rhizoctonia solani, mycelial plugs, growth inhibition at 48 hours vs 2% DMSO control
[16] = read-out: Concentration at 90% Inhibition Rs, Rhizoctonia solani, mycelial plugs, growth inhibition vs 2% DMSO control at 48 hours
[17] = read-out: Concentration at 90% Inhibition Cg, Collectotrichum graminicola, growth inhibition at 48 hours vs 2% DMSO control
[18] = read-out: Concentration at 90% Inhibition Cg, Collectotrichum graminicola, growth inhibition vs 2% DMSO control at 48 hours
[19] = read-out: Concentration at 90% Inhibition Fv, Fusarium virguliforme, growth inhibition at 48 hours vs 2% DMSO control
[20] = read-out: Concentration at 90% Inhibition Fv, Fusarium virguliforme, growth inhibition vs 2% DMSO control at 48 hours
[21] = read-out: MIC, C. parapsilosis ATCC 22019, Table 3a, 3 replicates, MIC recorded at 48 h
[22] = read-out: MIC, C. parapsilosis ATCC 22019, Table 3b (additional results), 3 replicates, MIC recorded at 48 h
[23] = read-out: Concentration at 90% Inhibition Pc, Phytophthora capsici, growth inhibition at 48 hours vs 2% DMSO control
[24] = read-out: Concentration at 90% Inhibition Pc, Phytophthora capsici, growth inhibition vs 2% DMSO control at 48 hours
[25] = Fusarium moniliforme, growth inhibition at 48 hours vs 2% DMSO control

human (hACC2), sequence (O00763 whole entry): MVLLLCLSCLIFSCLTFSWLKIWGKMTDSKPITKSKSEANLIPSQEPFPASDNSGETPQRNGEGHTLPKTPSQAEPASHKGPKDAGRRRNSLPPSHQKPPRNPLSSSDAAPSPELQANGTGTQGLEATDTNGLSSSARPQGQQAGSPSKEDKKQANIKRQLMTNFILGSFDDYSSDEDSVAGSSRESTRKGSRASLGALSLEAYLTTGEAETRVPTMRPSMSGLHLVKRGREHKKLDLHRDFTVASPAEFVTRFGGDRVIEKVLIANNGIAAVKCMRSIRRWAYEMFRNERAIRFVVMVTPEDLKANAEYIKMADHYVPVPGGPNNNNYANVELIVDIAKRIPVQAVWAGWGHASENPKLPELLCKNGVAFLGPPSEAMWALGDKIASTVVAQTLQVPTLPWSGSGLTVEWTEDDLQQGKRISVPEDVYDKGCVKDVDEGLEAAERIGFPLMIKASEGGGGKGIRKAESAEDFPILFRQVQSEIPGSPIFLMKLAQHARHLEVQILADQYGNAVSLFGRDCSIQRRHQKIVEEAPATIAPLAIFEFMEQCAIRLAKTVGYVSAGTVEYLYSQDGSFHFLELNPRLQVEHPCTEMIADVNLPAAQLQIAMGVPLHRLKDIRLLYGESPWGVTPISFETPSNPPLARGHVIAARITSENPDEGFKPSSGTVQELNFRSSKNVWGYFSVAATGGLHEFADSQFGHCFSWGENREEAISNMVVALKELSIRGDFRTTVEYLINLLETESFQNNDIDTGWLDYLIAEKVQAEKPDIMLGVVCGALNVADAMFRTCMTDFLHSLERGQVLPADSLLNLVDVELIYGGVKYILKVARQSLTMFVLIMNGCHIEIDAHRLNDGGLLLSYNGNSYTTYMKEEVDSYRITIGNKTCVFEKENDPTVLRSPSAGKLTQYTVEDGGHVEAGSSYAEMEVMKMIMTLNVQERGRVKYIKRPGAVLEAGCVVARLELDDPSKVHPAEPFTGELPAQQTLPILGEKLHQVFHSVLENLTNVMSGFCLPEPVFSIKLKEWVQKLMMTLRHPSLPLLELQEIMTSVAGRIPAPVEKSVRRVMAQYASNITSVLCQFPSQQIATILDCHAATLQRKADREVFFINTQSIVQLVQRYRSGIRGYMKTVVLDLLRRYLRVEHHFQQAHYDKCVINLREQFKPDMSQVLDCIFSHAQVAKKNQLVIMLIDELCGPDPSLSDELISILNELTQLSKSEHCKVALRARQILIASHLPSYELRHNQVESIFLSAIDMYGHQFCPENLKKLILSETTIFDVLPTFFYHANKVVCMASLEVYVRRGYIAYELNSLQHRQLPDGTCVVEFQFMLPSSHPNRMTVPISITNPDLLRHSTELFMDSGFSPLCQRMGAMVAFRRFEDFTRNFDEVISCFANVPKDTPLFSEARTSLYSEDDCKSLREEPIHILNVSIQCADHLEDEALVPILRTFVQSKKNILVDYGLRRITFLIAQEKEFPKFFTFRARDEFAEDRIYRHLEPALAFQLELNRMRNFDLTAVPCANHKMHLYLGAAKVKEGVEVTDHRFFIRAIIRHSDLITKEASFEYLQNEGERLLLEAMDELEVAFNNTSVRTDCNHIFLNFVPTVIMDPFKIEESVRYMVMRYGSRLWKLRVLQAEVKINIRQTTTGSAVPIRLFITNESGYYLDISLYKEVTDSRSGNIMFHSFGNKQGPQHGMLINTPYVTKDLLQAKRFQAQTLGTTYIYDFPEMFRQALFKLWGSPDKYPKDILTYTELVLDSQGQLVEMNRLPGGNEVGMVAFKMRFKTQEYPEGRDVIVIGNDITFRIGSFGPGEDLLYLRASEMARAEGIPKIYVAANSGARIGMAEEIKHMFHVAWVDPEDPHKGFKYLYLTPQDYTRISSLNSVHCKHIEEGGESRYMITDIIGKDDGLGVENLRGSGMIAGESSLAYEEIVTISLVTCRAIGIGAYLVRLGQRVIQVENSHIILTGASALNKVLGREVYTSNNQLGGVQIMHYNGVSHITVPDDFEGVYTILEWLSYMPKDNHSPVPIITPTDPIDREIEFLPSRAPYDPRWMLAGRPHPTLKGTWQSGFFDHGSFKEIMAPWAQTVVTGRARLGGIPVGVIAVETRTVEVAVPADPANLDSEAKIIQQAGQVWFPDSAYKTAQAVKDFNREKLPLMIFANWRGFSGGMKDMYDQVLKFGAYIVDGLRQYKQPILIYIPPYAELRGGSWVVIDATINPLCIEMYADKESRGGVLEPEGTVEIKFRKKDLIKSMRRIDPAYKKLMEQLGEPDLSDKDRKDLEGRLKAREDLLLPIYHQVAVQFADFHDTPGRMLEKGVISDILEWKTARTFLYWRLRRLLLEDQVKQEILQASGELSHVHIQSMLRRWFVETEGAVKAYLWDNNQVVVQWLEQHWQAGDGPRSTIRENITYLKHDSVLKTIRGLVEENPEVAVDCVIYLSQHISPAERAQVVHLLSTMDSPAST
fungal (fACC2), sequence (Q00955 whole entry): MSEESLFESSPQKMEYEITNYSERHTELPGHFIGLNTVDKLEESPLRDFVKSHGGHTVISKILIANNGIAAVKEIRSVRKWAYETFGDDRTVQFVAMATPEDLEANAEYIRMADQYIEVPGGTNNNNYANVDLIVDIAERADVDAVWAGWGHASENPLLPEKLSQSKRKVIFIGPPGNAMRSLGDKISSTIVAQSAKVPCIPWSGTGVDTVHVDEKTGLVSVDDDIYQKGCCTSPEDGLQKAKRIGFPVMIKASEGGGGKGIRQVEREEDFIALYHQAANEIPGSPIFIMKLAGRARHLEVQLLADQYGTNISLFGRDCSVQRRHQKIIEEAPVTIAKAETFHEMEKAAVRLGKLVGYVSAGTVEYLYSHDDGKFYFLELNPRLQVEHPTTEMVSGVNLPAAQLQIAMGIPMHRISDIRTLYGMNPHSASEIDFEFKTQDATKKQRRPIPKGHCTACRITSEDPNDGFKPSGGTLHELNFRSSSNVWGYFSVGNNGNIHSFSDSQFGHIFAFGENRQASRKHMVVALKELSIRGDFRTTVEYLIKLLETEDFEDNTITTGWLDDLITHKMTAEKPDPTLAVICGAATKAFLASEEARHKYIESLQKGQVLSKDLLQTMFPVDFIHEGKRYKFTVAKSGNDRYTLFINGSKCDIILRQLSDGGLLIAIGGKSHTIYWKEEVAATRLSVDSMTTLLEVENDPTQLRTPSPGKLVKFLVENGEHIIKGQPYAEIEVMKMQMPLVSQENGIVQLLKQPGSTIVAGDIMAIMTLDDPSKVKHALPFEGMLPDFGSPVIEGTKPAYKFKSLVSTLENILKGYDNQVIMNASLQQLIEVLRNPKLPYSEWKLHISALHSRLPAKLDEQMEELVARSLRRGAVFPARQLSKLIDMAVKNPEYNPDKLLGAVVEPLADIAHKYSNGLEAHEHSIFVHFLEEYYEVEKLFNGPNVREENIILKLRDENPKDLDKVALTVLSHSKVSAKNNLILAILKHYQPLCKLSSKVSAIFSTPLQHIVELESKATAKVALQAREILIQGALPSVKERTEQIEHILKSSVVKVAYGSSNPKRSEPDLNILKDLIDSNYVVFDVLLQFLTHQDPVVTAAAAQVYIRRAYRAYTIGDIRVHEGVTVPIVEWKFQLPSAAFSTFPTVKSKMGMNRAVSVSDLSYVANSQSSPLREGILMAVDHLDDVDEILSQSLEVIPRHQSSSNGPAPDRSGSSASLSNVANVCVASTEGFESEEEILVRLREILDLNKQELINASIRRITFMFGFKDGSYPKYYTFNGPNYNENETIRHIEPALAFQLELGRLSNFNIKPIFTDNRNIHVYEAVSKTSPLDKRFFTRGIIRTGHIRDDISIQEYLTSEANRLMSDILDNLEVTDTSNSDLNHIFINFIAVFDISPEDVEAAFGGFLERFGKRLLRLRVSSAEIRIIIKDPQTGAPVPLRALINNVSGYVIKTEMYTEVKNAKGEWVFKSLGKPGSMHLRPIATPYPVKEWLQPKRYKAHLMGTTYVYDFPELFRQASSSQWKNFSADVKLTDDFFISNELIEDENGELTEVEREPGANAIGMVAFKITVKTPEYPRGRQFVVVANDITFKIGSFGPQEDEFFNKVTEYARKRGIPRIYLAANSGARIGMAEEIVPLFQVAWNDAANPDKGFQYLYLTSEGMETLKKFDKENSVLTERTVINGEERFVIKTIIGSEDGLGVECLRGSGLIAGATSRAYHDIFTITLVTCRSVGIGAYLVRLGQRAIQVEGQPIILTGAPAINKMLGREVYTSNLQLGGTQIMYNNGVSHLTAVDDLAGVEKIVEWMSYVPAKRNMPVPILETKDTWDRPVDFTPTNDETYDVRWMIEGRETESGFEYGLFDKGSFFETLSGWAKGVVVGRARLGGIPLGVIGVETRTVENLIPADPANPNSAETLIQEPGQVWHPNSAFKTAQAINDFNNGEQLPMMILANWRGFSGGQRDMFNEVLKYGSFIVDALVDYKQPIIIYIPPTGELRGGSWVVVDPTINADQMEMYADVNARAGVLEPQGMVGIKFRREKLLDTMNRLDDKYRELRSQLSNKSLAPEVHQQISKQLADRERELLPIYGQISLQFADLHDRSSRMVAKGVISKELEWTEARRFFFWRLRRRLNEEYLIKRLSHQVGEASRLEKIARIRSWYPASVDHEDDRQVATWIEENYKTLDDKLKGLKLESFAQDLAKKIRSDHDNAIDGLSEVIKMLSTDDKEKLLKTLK

SMILES | IC90 [1, 11] [µg/mL] | IC90 [1, 12] [µg/mL] | IC90 [2, 13] [µg/mL] | IC90 [2, 14] [µg/mL] | IC90 [3, 15] [µg/mL] | IC90 [3, 16] [µg/mL] | pIC50 ([4]; Table 2a) | pIC50 ([4]; Table 2b, additional results) | IC90 [5, 17] [µg/mL] | IC90 [5, 18] [µg/mL] | IC90 [6, 19] [µg/mL] | IC90 [6, 20] [µg/mL] | MIC [7, 21] [µg/mL] | MIC [7, 22] [µg/mL] | pIC50 ([8]; Table 2a) | pIC50 ([8]; Table 2b, additional results) | IC90 [9, 23] [µg/mL] | IC90 [9, 24] [µg/mL] | Concentration at 90% Inhibition Fm [10, 25] | IC90 [10] [µg/mL] | other results
COc1ccc(F)cc1[C@H](Cn1c(=O)n(C(C)(C)C(=O)NC(C)C)c(=O)c2c(C)c(-n3nccn3)sc21)OC[C@H](C)O [Compound I-47, 2-(1-((R)-2-(5-fluoro-2-methoxyphenyl)-2-((S)-2-hydroxypropoxy)ethyl)-5-methyl-2,4-dioxo-6-(2H-1,2,3-triazol-2-yl)-1,4-dihydro-thieno[2,3-d]pyrimidin-3(2H)-yl)-N-isopropyl-2-methylpropanamide] | 10 (≈ 16.6 µM) | > 50 | 0.4 (≈ 0.664 µM) | 0.4 (≈ 0.664 µM) | 0.4 (≈ 0.664 µM) | 0.4 (≈ 0.664 µM) | 8.30 to 9.00 | 8.30 to 9.00 | 0.4 (≈ 0.664 µM) | 0.4 (≈ 0.664 µM) | 0.4 (≈ 0.664 µM) | 0.4 (≈ 0.664 µM) | 0.25 to 1 (≈ 0.415 to 1.66 µM) | 1.01 to 2 (≈ 1.68 to 3.32 µM) | 7.40 to 8.00 | 7.40 to 8.00 | > 50 | > 50 | AA (compound concentration of 0.08 ppm at 90% inhibition of fungal pathogens) | 0.08 (≈ 0.133 µM) | –
COc1ccc(F)cc1[C@H](Cn1c(=O)n(C(C)(C)C(=O)N2CCCC2)c(=O)c2c(C)c(-n3nccn3)sc21)OC[C@H](C)O [Compound I-48, 1-((R)-2-(5-fluoro-2-methoxyphenyl)-2-((S)-2-hydroxy-propoxy)ethyl)-5-methyl-3-(2-methyl-1-oxo-1-(pyrrolidin-1-yl)propan-2-yl)-6-(2H-1,2,3-triazol-2-yl)thieno[2,3-d]pyrimidine-2,4(1H,3H)-dione] | – | – | – | – | – | – | 9.00 to 9.40 | 9.00 to 9.52 | – | – | – | – | – | – | 8.00 to 8.30 | 8.00 to 8.30 | – | – | – | – | IC90 ([1]; Septoria tritici, growth inhibition at 48 hours vs 2% DMSO control, read-out: Concentration at 90% Inhibition St): > 50 µg/mL; IC90 ([1]; Septoria tritici, growth inhibition vs 2% DMSO control at 48 hours, read-out: Concentration at 90% Inhibition St): > 50 µg/mL; IC90 ([2]; Diplodia maydis, growth inhibition at 48 hours vs 2% DMSO control, read-out: Concentration at 90% Inhibition Dm): 2 µg/mL (≈ 3.25 µM); IC90 ([2]; Diplodia maydis, growth inhibition vs 2% DMSO control at 48 hours, read-out: Concentration at 90% Inhibition Dm): 2 µg/mL (≈ 3.25 µM); IC90 ([3]; mycelial plugs, growth inhibition at 48 hours vs 2% DMSO control, read-out: Concentration at 90% Inhibition Rs): 2 µg/mL (≈ 3.25 µM); IC90 ([3]; mycelial plugs, growth inhibition vs 2% DMSO control at 48 hours, read-out: Concentration at 90% Inhibition Rs): 10 µg/mL (≈ 16.3 µM); IC90 ([5]; Collectotrichum graminicola, growth inhibition at 48 hours vs 2% DMSO control, read-out: Concentration at 90% Inhibition Cg): 0.4 µg/mL (≈ 0.651 µM); IC90 ([5]; Collectotrichum graminicola, growth inhibition vs 2% DMSO control at 48 hours, read-out: Concentration at 90% Inhibition Cg): 0.4 µg/mL (≈ 0.651 µM); IC90 ([6]; growth inhibition at 48 hours vs 2% DMSO control, read-out: Concentration at 90% Inhibition Fv): 0.4 µg/mL (≈ 0.651 µM); IC90 ([6]; growth inhibition vs 2% DMSO control at 48 hours, read-out: Concentration at 90% Inhibition Fv): 0.4 µg/mL (≈ 0.651 µM); MIC ([7]; Table 3a, ATCC 22019, 3 replicates, MIC recorded at 48 h, read-out: MIC, C. parapsilosis ATCC 22019): 2.1 to 4 µg/mL (≈ 3.42 to 6.51 µM); MIC ([7]; Table 3b (additional results), ATCC 22019, 3 replicates, MIC recorded at 48 h, read-out: MIC, C. parapsilosis ATCC 22019): 1.01 to 2 µg/mL (≈ 1.64 to 3.25 µM); IC90 ([9]; growth inhibition at 48 hours vs 2% DMSO control, read-out: Concentration at 90% Inhibition Pc): > 50 µg/mL; IC90 ([9]; growth inhibition vs 2% DMSO control at 48 hours, read-out: Concentration at 90% Inhibition Pc): > 50 µg/mL; IC90 [10, 25]: 0.4 µg/mL (≈ 0.651 µM); IC90 ([10]; Fusarium moniliforme, growth inhibition vs 2% DMSO control at 48 hours): 0.4 µg/mL (≈ 0.651 µM)
COc1ccc(F)cc1[C@H](Cn1c(=O)n(C(C)(C)C(=O)N(C)C)c(=O)c2c(C)c(-n3nccn3)sc21)OC(C)C [Compound I-49, (R)-2-(1-(2-(5-fluoro-2-methoxyphenyl)-2-isopropoxy-ethyl)-5-methyl-2,4-dioxo-6-(2H-1,2,3-triazol-2-yl)-1,4-dihydrothieno[2,3-d]pyrimi-din-3(2H)-yl)-N,N,2-trimethylpropanamide] | > 50 | > 50 | 2 (≈ 3.49 µM) | 2 (≈ 3.49 µM) | 0.4 (≈ 0.698 µM) | 0.4 (≈ 0.698 µM) | 8.30 to 9.00 | 8.30 to 9.00 | 10 (≈ 17.5 µM) | > 50 | 0.4 (≈ 0.698 µM) | 0.4 (≈ 0.698 µM) | 2.1 to 4 (≈ 3.67 to 6.98 µM) | > 4.01 | 7.40 to 8.00 | 7.40 to 8.00 | > 50 | > 50 | A (compound concentration of 0.4 ppm at 90% inhibition of fungal pathogens) | 0.4 (≈ 0.698 µM) | –
